Experimental data from publication PMC7367873, “Dissecting the sequence determinants for dephosphorylation by the catalytic subunits of phosphatases PP1 and PP2A” (Nature Communications, 2020).

Tests used:
[1] = tested on: GFP-14-3-3β and its binding proteins; test: GFP-14-3-3β co-IP with LC-MS/MS label-free quantification, untreated versus PP1c-treated; set-up: species or system human
Protocol: (§1) HeLa Kyoto cells expressing transiently transfected pEGFP(C1)-14-3-3β or pEGFP(C1) control plasmid, were incubated with 20 nM Calyculin A (# 9902 S, Cell Signaling Technology) for 12 min. Cells were washed twice on ice with cold PBS and after addition of 500 µL lysis buffer (100 mM NaCl, 10 mM Tris, 0.1% IGEPAL, 1 mM EDTA, 1 mM EGTA, 20 nM Calyculin A, 1x cOmplete Mini protease inhibitor cocktail (Sigma), 1 mM DTT, 1 mM MnCl2) cells were scraped from plates, lysed by 10 pushes through an injection needle (21 G, BD) and the insoluble fraction was pelleted by centrifugation (10 min, 10^4 rcf, 4 °C). Supernatants were then subjected to incubation with 1 µM recombinant phosphatase or buffer for 1 h at 30 °C. Next, we subjected samples to immunoprecipitation using α-GFP nanobodies covalently coupled to agarose beads (2 h, 4 °C, obtained from the EMBL PEPcore Core Facility). Beads were then washed three times with lysis buffer and samples were eluted in 1x LDS sample buffer (Thermo Fisher Scientific) by heating to 70 °C for 10 min.
(§2) The samples were then reduced with 25 mM dithiothreitol (10 min at 70 °C) and alkylated with 55 mM chloroacetamide (room temperature, 30 min, in the dark). Proteins were run on a precast 4–12% NuPAGE gel (ThermoFisher Scientific) for about 1 cm to concentrate the sample prior to in-gel tryptic digestion, which was performed according to the standard procedures. The peptides obtained were dried to completeness and resuspended in 12 µL of buffer A (0.1% FA), and 5 µL of sample were injected per MS measurement. The experiment was carried out in three independent replicates.
(§3) The samples were analyzed by LC-MS/MS on a Dionex Ultimate 3000 nano-HPLC coupled online to a Fusion Lumos Tribrid mass spectrometer (Thermo Fisher Scientific). Peptides were delivered to a trap column (75 µm × 2 cm, packed in-house with 5 µm C18 resin; Reprosil PUR AQ, Dr. Maisch) and washed using 0.1% FA at a flow rate of 5 µL/min for 10 min. Subsequently, peptides were transferred to an analytical column (75 µm × 45 cm, packed in-house with 3 µm C18 resin; Reprosil Gold) applying a flow rate of 300 nL/min and separated using a 60 min linear gradient from 4% to 32% LC solvent B (0.1% FA, 5% DMSO in ACN) in LC solvent A (0.1% FA in 5% DMSO). The eluate from the analytical column was sprayed via a stainless steel emitter (Thermo Fisher Scientific) at a source voltage of 2.1 kV into the mass spectrometer. The transfer capillary was heated to 275 °C. The Fusion Lumos was operated in positive ionization mode and data-dependent acquisition (DDA), automatically switching between MS1 and MS2 spectrum acquisition. Full scan MS1 spectra were recorded in the Orbitrap from 360 to 1300 m/z at a resolution of 60k (automatic gain control (AGC) target value of 4e5 charges, maximum injection time (maxIT) of 50 ms). Up to 20 peptide precursors were isolated (isolation window, 1.7 m/z; maximum injection time, 25 ms; and AGC value, 1e5), fragmented by high-energy collision-induced dissociation (HCD) using 30% normalized collision energy (NCE), and analyzed at a resolution of 15k in the Orbitrap. Precursor ions that were singly charged, unassigned, or with charge states >6+ were excluded. The dynamic exclusion duration of fragmented precursor ions was 20 s.
(§4) Peptide and protein identification and LFQ were performed using MaxQuant software (version 1.6.1.0)[64] by searching the data against all canonical protein sequences as annotated in the Swissprot reference database (human proteins only, 20193 entries, downloaded 22 March 2016, internally annotated with PFAM domains) using the embedded search engine Andromeda[65]. The MaxQuant search was performed using two variable modifications; oxidation of methionine and N-terminal protein acetylation. Carbamidomethylation on cysteines was specified as a fixed modification. Trypsin (Trypsin/P) was specified as the proteolytic enzyme with up to two allowed missed cleavage sites.

GFP-14-3-3β = GFP-14-3-3β co-IP with LC-MS/MS, untreated GFP-14-3-3β versus GFP control (14-3-3 interactome); format: binding, human
Protocol: as §1, §2, §3, §4

[2] = pairwise comparison PP1 vs untreated, student's t-test, 3 replicates each, LC-MS/MS label-free quantification
[3] = pairwise comparison untreated GFP-14-3-3β vs GFP, student's t-test, 3 replicates each, LC-MS/MS label-free quantification
[4] = log2 difference, pairwise comparison PP1 vs untreated, label-free quantification, 3 replicates each
[5] = log2 difference, pairwise comparison untreated vs GFP, label-free quantification, 3 replicates each
[6] = PP1 vs untreated, label-free quantification
[7] = untreated vs GFP, label-free quantification
[8] = pairwise comparison PP1 vs untreated
[9] = pairwise comparison untreated vs GFP
[10] = PP1 vs untreated, LFQ intensities, replicates 1-3
[11] = untreated vs GFP, LFQ intensities, replicates 1-3
[12] = GFP-14-3-3β co-IP LC-MS/MS, PP1 vs untreated, student's t-test, label-free quantification, 3 replicates each
[13] = GFP-14-3-3β co-IP LC-MS/MS, untreated vs GFP, student's t-test, label-free quantification, 3 replicates each
[14] = PP1 vs untreated, LFQ intensities, 3 replicates each
[15] = untreated vs GFP, LFQ intensities, 3 replicates each

## MYH9
[1]; [2]
  Difference (log2), PP1 vs untreated: -2.032 log2
GFP-14-3-3β; [3]
  Difference (log2), untreated vs GFP: 0.3664 log2

## MYO5A
[1]; [4]
  Difference (log2), PP1 vs untreated: 1.396
GFP-14-3-3β; [5]
  Difference (log2), untreated vs GFP: 0.8351

## MYO5B
[1]; [6]
  Difference (log2), PP1 vs untreated: 1.198 log2
GFP-14-3-3β; [7]
  Difference (log2), untreated vs GFP: -1.223 log2

## MYO5C
[1]; [6]
  Difference (log2), PP1 vs untreated: 0.9874 log2
GFP-14-3-3β; [7]
  Difference (log2), untreated vs GFP: -0.7461 log2

## MYO18A
[1]; [2]
  Difference (log2), PP1 vs untreated: -3.467 log2
GFP-14-3-3β; [3]
  Difference (log2), untreated vs GFP: 2.435 log2

## NAV1
[1]; [8]
  Difference (log2), PP1 vs untreated: -0.101 log2
GFP-14-3-3β; [9]
  Difference (log2), untreated vs GFP: 1.95 log2

## NONO
[1]; [10]
  Difference (log2), PP1 vs untreated: -0.8439 log2
GFP-14-3-3β; [11]
  Difference (log2), untreated vs GFP: 0.331 log2

## NPM1
[1]; [8]
  Difference (log2), PP1 vs untreated: 0.1234 log2
GFP-14-3-3β; [9]
  Difference (log2), untreated vs GFP: 0.2613 log2

## NSUN2
[1]; [4]
  Difference (log2), PP1 vs untreated: 1.3958
GFP-14-3-3β; [5]
  Difference (log2), untreated vs GFP: -0.08076

## NUMA1
[1]; [10]
  Difference (log2), PP1 vs untreated: -0.7467 log2
GFP-14-3-3β; [11]
  Difference (log2), untreated vs GFP: 2.2393 log2

## NUP188
[1]; [12]
  Difference (log2), PP1 vs untreated: -0.6223 log2
GFP-14-3-3β; [13]
  Difference (log2), untreated vs GFP: 1.172 log2

## NUP205
[1]; [12]
  Difference (log2), PP1 vs untreated: -0.6457 log2
GFP-14-3-3β; [13]
  Difference (log2), untreated vs GFP: 1.662 log2

## NUP210
[1]; [10]
  Difference (log2), PP1 vs untreated: -1.109 log2
GFP-14-3-3β; [11]
  Difference (log2), untreated vs GFP: 2.632 log2

## PABPC1
[1]; [8]
  Difference (log2), PP1 vs untreated: 0.26 log2
GFP-14-3-3β; [9]
  Difference (log2), untreated vs GFP: 0.5949 log2

## PCM1
[1]; [4]
  Difference (log2), PP1 vs untreated: 2.301
GFP-14-3-3β; [5]
  Difference (log2), untreated vs GFP: -0.166

## PCNT
[1]; [12]
  Difference (log2), PP1 vs untreated: -0.6422 log2
GFP-14-3-3β; [13]
  Difference (log2), untreated vs GFP: 1.216 log2

## PFKP
[1]; [4]
  Difference (log2), PP1 vs untreated: 1.388
GFP-14-3-3β; [5]
  Difference (log2), untreated vs GFP: -0.1859

## PHB2
[1]; [6]
  Difference (log2), PP1 vs untreated: 1.222 log2
GFP-14-3-3β; [7]
  Difference (log2), untreated vs GFP: 1.117 log2

## PIK3C2B
[1]; [2]
  Difference (log2), PP1 vs untreated: -3.205 log2
GFP-14-3-3β; [3]
  Difference (log2), untreated vs GFP: 5.48 log2

## PKM
[1]; [10]
  Difference (log2), PP1 vs untreated: -1.659 log2
GFP-14-3-3β; [11]
  Difference (log2), untreated vs GFP: 0.471 log2

## PLEC
[1]; [4]
  Difference (log2), PP1 vs untreated: 1.29
GFP-14-3-3β; [5]
  Difference (log2), untreated vs GFP: -0.5388

## PMS2
[1]; [10]
  Difference (log2), PP1 vs untreated: -0.8647 log2
GFP-14-3-3β; [11]
  Difference (log2), untreated vs GFP: 0.6772 log2

## PNN
[1]; [12]
  Difference (log2), PP1 vs untreated: -0.4869 log2
GFP-14-3-3β; [13]
  Difference (log2), untreated vs GFP: 2.978 log2

## PPIA
[1]; [10]
  Difference (log2), PP1 vs untreated: -2.011 log2
GFP-14-3-3β; [11]
  Difference (log2), untreated vs GFP: -0.5989 log2

## PPIB
[1]; [14]
  Difference (log2), PP1 vs untreated: 0.6708 log2
GFP-14-3-3β; [15]
  Difference (log2), untreated vs GFP: 0.09722 log2

## PPL
[1]; [10]
  Difference (log2), PP1 vs untreated: -1.031 log2
GFP-14-3-3β; [11]
  Difference (log2), untreated vs GFP: -0.5694 log2

## PRKDC
[1]; [8]
  Difference (log2), PP1 vs untreated: 0.07826 log2
GFP-14-3-3β; [9]
  Difference (log2), untreated vs GFP: -0.4154 log2

## PRPF8
[1]; [12]
  Difference (log2), PP1 vs untreated: -0.1499 log2
GFP-14-3-3β; [13]
  Difference (log2), untreated vs GFP: 2.212 log2

## PRRC2A
[1]; [14]
  Difference (log2), PP1 vs untreated: 0.5007 log2
GFP-14-3-3β; [15]
  Difference (log2), untreated vs GFP: 0.07605 log2

## PSIP1
[1]; [12]
  Difference (log2), PP1 vs untreated: -0.2351 log2
GFP-14-3-3β; [13]
  Difference (log2), untreated vs GFP: 1.521 log2

## PTBP1
[1]; [14]
  Difference (log2), PP1 vs untreated: 0.7235 log2
GFP-14-3-3β; [15]
  Difference (log2), untreated vs GFP: -0.5421 log2

## RACGAP1
[1]; [2]
  Difference (log2), PP1 vs untreated: -3.139 log2
GFP-14-3-3β; [3]
  Difference (log2), untreated vs GFP: 6.129 log2
